Reference: patent US20240167922A1, “TRANSPARENTIZING REAGENT AND TRANSPARENTIZING METHOD” (KYOTO UNIVERSITY, priority 2021, published 2024)

What was measured:
[1] = Measurement of opacity of noodle samples after optical clearing; settings: Example 6: 3M to 4M aqueous solutions, 30° C. for 3 days after fixation
Procedure: ClearSee was prepared by mixing xylitol powder [Nacalai tesque, 36718-65; final concentration 10% (wt/vol)], sodium deoxycholate [Nacalai tesque, 10712-96; final concentration 15% (wt/vol)], and urea [Nacalai tesque, 35905-35; final concentration 25% (wt/vol)] in Milli-Q water.
The opacity of the samples was determined using a cooled CCD camera system (GE Healthcare, ImageQuant LAS 4000). […] Then, the sample was digitised by the CCD camera which was cooled to −25° C. with a lens (F0.85 43 mm) using white transillumination. […] The opacity of the sample was calculated by normalising the gray value of the sample with that of the background using free software (Fiji). The contrast C, which represents the difference in gray level, was calculated according to the following equation (1) from an image of the samples laid with a film on which a grid pattern was printed. The plot profile was measured using Fiji software.
ClearSee is a reagent that is able to make plant samples transparent as described in Non-patent Literature 1, and aims to remove autofluorescence of chlorophyll from green leaves. To evaluate the transparency of the noodle samples, the opacity of the transmitted light image was quantified.
The noodle samples were fixed and then immersed in each clearing reagent at 30° C. for 3 days, and the opacity was measured. As controls, the opacity of the noodle sample just after fixation and the noodle sample immersed in D-PBS instead of the clearing reagent was measured. […] Values in the figure represent mean±SD of three independent experiments.

[2] = Test for decolorizing agent (opacity); settings: pasta immersed in the agent 5 days, then SoROCS 3 days; mean±SD of three experiments; water control 1.079±0.002
Procedure: Pasta samples made from durum wheat were fixed in 4% (wt/wt) PFA/PBS at 30° C. for 1.5 hours, and washed twice in D-PBS. […] Values represent mean ±SD of three independent experiments.

[3] = Test for defatting agent (opacity); settings: fried noodles immersed in the agent 5 days, then SoROCS 3 days; mean±SD of three experiments; water control 1.120±0.006
Procedure: Wheat noodle samples fried in vegetable oil were fixed in 4% (wt/wt) PFA/PBS at 30° C. for 1.5 hours and washed twice in D-PBS. […] Values represent mean ±SD of three independent experiments.

[4] = water at 20° C.; cited from earlier work

## Oc1cccc(O)c1O [pyrogallol]
[1]
  optical clearing of noodle samples: cleared

## O=C([O-])c1ccccc1O.[Li+] [lithium salicylate]
[1]
  optical clearing of noodle samples: cleared

## CCCCC(O)CO (stereo not shown) [1,2-hexanediol]
[2]
  opacity: 1.041±0.002

## C=C(C)[C@H]1CC=C(C)CC1 [limonene]
[3]
  opacity: 1.089±0.004

## O=C([O-])c1ccccc1C(=O)[O-].[Na+].[Na+] [disodium phthalate]
[1]
  optical clearing of noodle samples: cleared

## Oc1ccccc1O [catechol]
[1]
  optical clearing of noodle samples: cleared

## O=C([O-])c1cccc(O)c1.[Na+] [sodium 3-hydroxybenzoate]
[1]
  optical clearing of noodle samples: cleared

## O=C([O-])c1ccccc1O.[Na+] [sodium salicylate]
[4]
  solubility in water: about 4.125 M

## O=C([O-])c1ccc(O)cc1.[Na+] [sodium 4-hydroxybenzoate]
[1]
  optical clearing of noodle samples: cleared

## Oc1cccc(O)c1 [resorcinol]
[1]
  optical clearing of noodle samples: cleared
